Measurements as given in patent publication EP0107907A2, “Improvements in or relating to immunomodulating agents” (ELI LILLY AND COMPANY, priority 1982, dated 1984).
Marks after values point to notes of the source that are not given here.

Tests used:
Electrometric titration = type: physicochemical; conditions: 66% aqueous dimethylformamide; the glycyl amino group
Solubility = type: physicochemical
From the text: A53868 factor A is soluble in water and dimethyl sulfoxide and is insoluble in most organic solvents.
Soluhility: soluble in water and dimethyl sulfoxide; insoluble in most organic solvents

murine macrophages = assay: In vitro activation of murine macrophages (macrophage-mediated tumor cytotoxicity against P815 cells); type: cell-based; conditions: 48 hours
Experimental: In one procedure, the ability of the compounds to activate murine macrophages in vitro was determined. Peritoneal macrophages were exposed to a compound of formula 1, 2, or 3 simultaneously with the addition of target cells. Tumor cytotoxicity of these treated macrophages was determined 48 hours later by trypan blue enumeration. The percentage of growth inhibition of P815 cells due to composition-mediated macrophage activation was calculated by comparison to that of P815 cells grown in the.presence of macrophages exposed to buffer.

peritoneal macrophages = assay: In vivo macrophage activation (peritoneal macrophages from treated mice, cytotoxicity against P815 cells); parameters: species or system BALB/c mice
Experimental: In another procedure, peritoneal macrophages were harvested after 3, 5, or 10 days from composition- treated mice by peritoneal lavage and purified by adherence on plastic. Approximately 4 x 10^5 macrophages in 16-mm wells were overlaid with 4 x 10^4 P815 cells contained in 2 ml of Roswell Park Memorial Institute.1640 Medium supplemented with 20 percent fetal calf serum. All cultures were maintained in a humidified, 5-percent COZ-in-air incubator at 37°C., and cytotoxicity was assessed at 48 hours on the basis of viable cell counts in a hemocytometer. Triplicate cultures were maintained for each group; the mean cell count and standard error (S.E.) were calculated. […] The ratio of macrophages to target cells was approximately 10:1 at the beginning of each experiment. The percentage of growth inhibition of P815 cells due to composition-mediated macrophage activation was calculated by comparison to that of P815 cells grown in the presence of macrophages from buffer- treated animals.

L. monocytogenes EDG = assay: Standard agar-diffusion test, antibacterial; type: cell-based
From the text: Compound 1 was negative in the Limulus Lysate Test for endotoxin and was devoid of intrinsic in vitro antibacterial activity against L. monocytogenes EDG in a standard agar-diffusion test.

C. albicans A26 = assay: Standard agar-diffusion test, antifungal; type: cell-based
Experimental: (§1) In this test CD1 mice weighing 18-20 g were pretreated intraperitoneally or subcutaneously with test compound at 5, 3, and 1 days before intravenous infection with 5 x 10^6 viable cells of Candida albicans A26. Test compound was solubilized in pyrogen-free water and administered in 0.25 ml of solution. Ten mice were used for each concentration tested. Ten infected mice were treated intraperitoneally or subcutaneously at 5, 3, and 1 days preinfection with 0.25 ml of pyrogen-free water as controls. The immunomodulatory effects of the test compound were studied in X-irradiated mice exposed to 400R 24 hours preinfection, or mice treated intraperitoneally with 50 mg/kg cyclophosphamide 5, 3, and 1 days preinfection. The mice were caged, watered, and fed daily. The number of surviving mice was counted daily. Normal mice surviving 18 days post-infection were given an arbitrary 19-day survival time. X-irradiated or cyclophosphamide-treated mice surviving 12 days post-infection were given an arbitrary 13 day survival time. The average survival time was calculated for each group. Significant differences between treated and untreated groups of mice were determined by "T" test. Compound 1 was devoid of intrinsic in vitro antifungal activity against C. albicans A26 in a standard agar-diffusion test.

Candida albicans A26 = assay: Protection of mice by pretreatment against lethal Candida albicans infection; type: in vivo, CD1 mice
Experimental: as §1

[1] = Cyclophosphamide-Pretreated Mice, dose 25 mg/kg
[2] = Cyclophosphamide-Pretreated Mice, dose 50 mg/kg

For `C=C(CP(=O)(O)O)NC(=O)[C@H](CC(C)C)NC(=O)CN` [Compound 1, N^2-glycyl-N-(1-methylene-2-phosphonoethyl)leucinamide], the pKa (Electrometric titration) was 8.2, the “solubility in most organic solvents” value (Solubility; most organic solvents) was “insoluble” and the “solubility in water and dimethyl sulfoxide” value (Solubility; water and dimethyl sulfoxide) was “soluble”. The “Percent Macrophage Cytotoxicity” value (murine macrophages; 1.56 µg/ml, Experiment 2) was 0%, the “Percent Macrophage Cytotoxicity” value (murine macrophages; 3.12 µg/ml, Experiment 1) was 11% and the “Percent Macrophage Cytotoxicity” value (murine macrophages; 3.12 µg/ml, Experiment 2) was 14%. For the same molecule, the “Percent Macrophage Cytotoxicity” value (murine macrophages; 6.25 µg/ml, Experiment 1) was 0%, the “Percent Macrophage Cytotoxicity” value (murine macrophages; 6.25 µg/ml, Experiment 2) was 0% and the “Percent Macrophage Cytotoxicity” value (murine macrophages; 12.5 µg/ml, Experiment 1) was 27%. The “Percent Macrophage Cytotoxicity” value (murine macrophages; 12.5 µg/ml, Experiment 2) was 39%, the “Percent Macrophage Cytotoxicity” value (murine macrophages; 25 µg/ml, Experiment 1) was 43% and the “Percent Macrophage Cytotoxicity” value (murine macrophages; 25 µg/ml, Experiment 2) was 32%. For the same molecule, the “Percent Macrophage Cytotoxicity” value (murine macrophages; 50 µg/ml, Experiment 1) was 35%, the “Percent Macrophage Cytotoxicity” value (murine macrophages; 50 µg/ml, Experiment 2) was 29% and the “Percent Macrophage Cytotoxicity” value (murine macrophages; 100 µg/ml, Experiment 1) was 53%. For the same molecule, the “Percent Macrophage Cytotoxicity at Day” value (peritoneal macrophages; dose 10 mg/kg, Day 0) was 0%, the “Percent Macrophage Cytotoxicity at Day” value (peritoneal macrophages; dose 10 mg/kg, Day 3) was 8% and the “Percent Macrophage Cytotoxicity at Day” value (peritoneal macrophages; dose 10 mg/kg, Day 5) was 20%. For the same molecule, the “Percent Macrophage Cytotoxicity at Day” value (peritoneal macrophages; dose 10 mg/kg, Day 10) was 0%, the “Percent Macrophage Cytotoxicity at Day” value (peritoneal macrophages; dose 100 mg/kg, Day 0) was 0% and the “Percent Macrophage Cytotoxicity at Day” value (peritoneal macrophages; dose 100 mg/kg, Day 3) was 43%. For the same molecule, the “Percent Macrophage Cytotoxicity at Day” value (peritoneal macrophages; dose 100 mg/kg, Day 5) was 25%, the “Percent Macrophage Cytotoxicity at Day” value (peritoneal macrophages; dose 100 mg/kg, Day 10) was 0% and the “intrinsic in vitro antibacterial activity” value (L. monocytogenes EDG) was “devoid”. The “intrinsic in vitro antifungal activity” value (C. albicans A26) was “devoid”, the “Average Survival Time” value (Candida albicans A26; [1]) was 6.8 days and the “Percent Increase In Average Survival Time Above Untreated Controls” value (Candida albicans A26; [1]) was 54.5* Percent. The “Average Survival Time” value (Candida albicans A26; [2]) was 6.1 days, the “Percent Increase In Average Survival Time Above Untreated Controls” value (Candida albicans A26; [2]) was 38.6* Percent and the “Average Survival Time” value (Candida albicans A26; Normal Mice, dose 12.5 mg/kg) was 9.1 days. For the same molecule, the “Percent Increase In Average Survival Time Above Untreated Controls” value (Candida albicans A26; Normal Mice, dose 12.5 mg/kg) was 68.0* Percent, the “Average Survival Time” value (Candida albicans A26; Normal Mice, dose 50 mg/kg) was 7.1 days and the “Percent Increase In Average Survival Time Above Untreated Controls” value (Candida albicans A26; Normal Mice, dose 50 mg/kg) was 31.5* Percent. For the same molecule, the “protecting mice from a lethal Candida albicans A26 infection” value (Candida albicans A26; preinfection treatments at 5, 3, and 1 days, intraperitoneally or subcutaneously) was “significantly effective”.
